In patent US20090093448A1, “19-NOR-PROGESTERONE FOR CONTRACEPTION” (GRUNENTHAL GMBH, priority 2007, published 2009):
Counter-ions that a name gives are not always drawn.

What was measured:
[1] = system: endometrium; assay: McPhail test (progestational proliferation of the endometrium); assay type: in vivo, rabbits; settings: for Mean McPhail Score (max. 4.0): estrone-primed immature female rabbits, five daily doses
Description: Trimegestone sulfate was tested in the McPhail test, which is a test for progesterone and like substances. Immature female rabbits are treated with 150 IU of estrone over a period of 6 days. The test material is then given in five daily subcutaneous doses. Progestational proliferation of the endometrium is noted and the results estimated according to a scale from 0 to 4.0.

[2] = target: T1, human progesterone receptor (Homo sapiens, UniProt P06401); assay: Relative binding affinity for the human progesterone receptor; settings: for Relative binding affinity to progesterone receptor: progesterone as reference = 100
T1 sequence (P06401 1-933): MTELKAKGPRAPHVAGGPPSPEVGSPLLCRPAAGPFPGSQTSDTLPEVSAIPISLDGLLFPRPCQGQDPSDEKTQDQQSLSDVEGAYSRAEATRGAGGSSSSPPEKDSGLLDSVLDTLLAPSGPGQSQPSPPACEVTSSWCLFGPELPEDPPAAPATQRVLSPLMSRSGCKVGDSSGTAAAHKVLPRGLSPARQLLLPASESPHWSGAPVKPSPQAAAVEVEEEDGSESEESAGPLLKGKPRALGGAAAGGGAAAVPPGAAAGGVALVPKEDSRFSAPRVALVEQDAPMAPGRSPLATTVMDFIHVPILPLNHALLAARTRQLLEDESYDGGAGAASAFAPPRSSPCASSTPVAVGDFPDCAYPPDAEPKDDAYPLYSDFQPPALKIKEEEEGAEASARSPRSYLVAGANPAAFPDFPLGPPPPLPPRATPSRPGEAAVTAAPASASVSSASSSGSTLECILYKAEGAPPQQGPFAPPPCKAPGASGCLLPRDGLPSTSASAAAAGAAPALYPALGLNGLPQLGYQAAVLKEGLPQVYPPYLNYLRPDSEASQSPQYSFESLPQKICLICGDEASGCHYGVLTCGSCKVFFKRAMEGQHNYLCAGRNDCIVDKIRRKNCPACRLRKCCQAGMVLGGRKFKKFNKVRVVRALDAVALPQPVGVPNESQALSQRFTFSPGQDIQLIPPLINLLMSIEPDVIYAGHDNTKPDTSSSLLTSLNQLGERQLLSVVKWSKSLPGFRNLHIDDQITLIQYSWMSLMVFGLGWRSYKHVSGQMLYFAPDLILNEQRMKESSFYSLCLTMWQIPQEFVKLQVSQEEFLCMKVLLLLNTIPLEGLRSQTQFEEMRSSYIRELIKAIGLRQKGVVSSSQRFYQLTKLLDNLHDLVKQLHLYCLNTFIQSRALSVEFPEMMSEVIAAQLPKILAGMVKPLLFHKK

Row | Structure (SMILES) | Mean McPhail Score (max. 4.0) ([1]; 0.1 mg/kg/day s.c.) | Mean McPhail Score (max. 4.0) ([1]; 1.0 mg/kg/day s.c.) | Relative binding affinity to progesterone receptor [2] | relative affinity for the progesterone receptor ([2]; % of the affinity of natural progesterone) [%] | Mean McPhail Score (max. 4.0) ([1]; 0.0001 mg/kg/day s.c.) | Mean McPhail Score (max. 4.0) ([1]; 0.001 mg/kg/day s.c.) | Mean McPhail Score (max. 4.0) ([1]; 0.01 mg/kg/day s.c.) | Mean McPhail Score (max. 4.0) ([1]; 10.0 mg/kg/day s.c.) | endometrium transforming effects in the McPhail test ([1]; s.c., 0.0001 to 10.0 mg/kg/day, result in words)
1 | CC(=O)[C@H]1CC[C@H]2[C@@H]3CCC4=CC(=O)CC[C@]4(C)[C@H]3CC[C@]12C [Progesterone] | 2.25 | 3.75 | – | – | – | – | – | – | –
2 | CC(O)C(=O)C1(C)CCC2C3CC(O)C4=CC(=O)CCC4=C3CCC21C (stereo not drawn) [6β-OH trimegestone, 6β-hydroxytrimegestone, reference compound] | – | – | 12 | – | – | – | – | – | –
3 | C[C@H](OS(=O)(=O)O)C(=O)[C@@]1(C)CCC2C3CCC4=CC(=O)CCC4=C3CC[C@@]21C (stereo partly shown) [Trimegestone sulfate, Trimegestone sulfate, pyridinium salt] | 3.31 | 2.93 | 40 | 40 | 0.75 | 0.88 | 2.1 | 3.68 | dose-dependent potent endometrium transforming effects
4 | CC(O)C(=O)C1(C)CCC2C3CCC4=CC(=O)CC(O)C4=C3CCC21C (stereo not drawn) [1β-OH trimegestone, 1β-hydroxytrimegestone, reference compound] | – | – | 64 | – | – | – | – | – | –
